In general, IC50 refers to the midpoint of a concentration-inhibition curve. Read a high IC50 as a need for much substance.

The subject of the experiment is HCV replicon. The class given is cell-based.
`C[C@@H](OC(=O)Nc1ccc(-c2c(C#N)c3ccc(Oc4ncccn4)cc3n2C2CC2)cc1F)C1CC1` [Compound 2413] yielded an IC50 below 0.5 µM.

For `CCOc1ccc2c(C#N)c(-c3ccc(NC(=O)CC)cc3)n(CC)c2c1` [Compound 896], the half-inhibitory concentration (IC50) lay within 0.5 to 2 µM.

As for `COc1ccc2c(c1)c(C#N)c(-c1ccc(NC(=O)NC3CCCC3)cc1)n2C1CCC1` [Compound 1165], the IC50 lay within 0.5 to 2 µM.

`CC(OC(=O)Nc1ccc(-c2c(C#N)c3ccc(OCCN(C)C)cc3n2C2CCC2)cc1)C1CC1` (stereo not shown) [Compound 1327] returned an IC50 below 0.5 µM.

Turning to `CCOc1ccc2c(C#N)c(-c3ccc(NC(=O)OC(C)C(C)(C)C)cc3)n(C3CCC3)c2c1` (stereo not shown) [Compound 1312], the 50% inhibitory concentration (IC50) is below 0.5 µM.

As to `CCOP(=O)(Nc1ccc(-c2c(C#N)c3ccc(OC)cc3n2C2CCC2)cc1)OCC` [Compound 1081], the IC50 fell in the range of 0.5 to 2 µM.

Compound `CCCn1c(-c2ccc(NC(=O)NCC)cc2)c(C#N)c2ccc(OCC)cc21` [Compound 1094] showed an IC50 of 0.5 to 2 µM.

`CC(C)NC(=O)Nc1ccc(-c2c(C#N)c3ccc(OCCn4ccnc4)cc3n2C2CCC2)cc1` [Compound 1322]: the IC50 is below 0.5 µM.

In turn, `CC(C)NC(=O)Nc1ccc(-c2c(C#N)c3cc4c(cc3n2C2CCC2)OCO4)cc1` [Compound 1303] returned an IC50 of 0.5 to 2 µM.

For `CCOC(=O)Nc1ccc(-c2c(C#N)c3cc(OCc4ccccc4)ccc3n2CC)cc1` [Compound 925], the half-inhibitory concentration (IC50) was 0.5 to 2 µM.

In turn, `CCCn1c(-c2ccc(NC(=O)OCC)cc2)c(C#N)c2ccc(OCC)cc21` [Compound 1063] returned an IC50 of 0.5 to 2 µM.

`CCn1c(-c2ccc(NS(=O)(=O)C3CC3)cc2)c(C#N)c2ccc(OC3CC3)cc21` [Compound 1047] returned an IC50 below 0.5 µM.

In the case of `CCn1c(-c2ccc(N3CCCS3(=O)=O)cc2)c(C#N)c2ccc(N)cc21` [Compound 1050], the IC50 was 0.5 to 2 µM.

As for `CCC(C)NC(=O)Nc1ccc(-c2c(C#N)c3ccc(OC(F)F)cc3n2CC2CC2)cc1` (stereo not shown) [Compound 1266], the IC50 lay in the range of 0.5 to 2 µM.

The compound `CCCOC(=O)Nc1ccc(-c2c(C#N)c3ccc(OCCCCl)cc3n2CC)cc1` [Compound 1030] gave an IC50 below 0.5 µM.

Compound `CCOc1ccc2c(C#N)c(-c3ccc(NC(=O)OC4CCOCC4)cc3)n(C3CCC3)c2c1` [Compound 1216] yielded an IC50 of 0.5 to 2 µM.

As to `CC(C)OC(=O)Nc1ccc(-c2c(C#N)c3ccc(OCCCN4CCOCC4)cc3n2C2CCC2)cc1` [Compound 1253], the IC50 lay in the range of 0.5 to 2 µM.

For `CCCOC(=O)Nc1ccc(-c2c(C#N)c3ccc(OC)cc3n2CC2CC2)cc1` [Compound 985], the IC50 was 0.5 to 2 µM.

`COc1ccc2c(C#N)c(-c3ccc(NS(=O)(=O)C4CC4)cc3)n(CC3CCCC3)c2c1` [Compound 890]: the IC50 lay within 0.5 to 2 µM.

`CCn1c(-c2ccc(NC(=O)NC(C)C)cc2)c(C#N)c2cc3c(cc21)OCO3` [Compound 1039] gave an IC50 of 0.5 to 2 µM.

Turning to `CCCS(=O)(=O)Nc1ccc(-c2c(C#N)c3ccc(OC)cc3n2C2CC2)cc1` [Compound 1235], the IC50 was 0.5 to 2 µM.

The compound `CCOc1ccc2c(C#N)c(-c3ccc(NC(=O)OCc4ccccn4)cc3)n(C3CCC3)c2c1` [Compound 1264] had a half-maximal inhibitory concentration (IC50) below 0.5 µM.

`CCOc1ccc2c(C#N)c(-c3ccc(NC(=O)OCC(C)(C)C)cc3)n(CC3CC3)c2c1` [Compound 1152] gave an IC50 below 0.5 µM.

For the compound `CCCn1c(-c2ccc(NC(=O)NCCc3ccccc3)cc2)c(C#N)c2ccc(OCC)cc21` [Compound 1256], the IC50 is below 0.5 µM.

Compound `CCCCOC(=O)Nc1ccc(-c2c(C#N)c3ccc(O)cc3n2CC)cc1` [Compound 1086] came in with a concentration for half-maximal inhibition (IC50) below 0.5 µM.

In turn, `CCOc1ccc2c(c1)c(C#N)c(-c1ccc(NC(=O)NC(C)C)cc1)n2C1CCC1` [Compound 1223] registered an IC50 below 0.5 µM.

`CCOc1ccc2c(C#N)c(-c3ccc(NC(=O)OC4CCCC4)cc3)n(C3CCCC3)c2c1` [Compound 1211]: the IC50 is below 0.5 µM.

`C=CCNC(=O)Nc1ccc(-c2c(C#N)c3cc4c(cc3n2C2CCC2)OCO4)cc1` [Compound 1304] displayed an IC50 of 0.5 to 2 µM.

Values taken from patent US7973069B2 (PTC Therapeutics, Inc., priority 2004, dated 2011).
